# Laboratory results from patent US11964953B2, “Substituted aminothiazoles as DGKzeta inhibitors for immune activation” (Bayer Aktiengesellschaft, priority 2020, dated 2024).
# Biological target: human DGKζ (Homo sapiens (Human), UniProt Q13574)
# Assay: Human DGKζ kinase activity inhibition assay (ADP-Glo)
# Type: biochemical
# Settings: in vitro human DGKζ kinase activity inhibition assay; read-out: IC50
# Method in brief: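 Enzyme was C-terminally FLAG-tagged full-length recombinant human DGKζ from baculovirus-infected insect cells. Substrate preparation used octyl-β-D-glucopyranoside in 50 mM MOPS pH 7.4 with sonication; ADP generated was quantified by ADP-Glo luminescence as activity measure.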
# Chain of human DGKζ (Q13574 other isoform, or with tags, fused parts or gaps): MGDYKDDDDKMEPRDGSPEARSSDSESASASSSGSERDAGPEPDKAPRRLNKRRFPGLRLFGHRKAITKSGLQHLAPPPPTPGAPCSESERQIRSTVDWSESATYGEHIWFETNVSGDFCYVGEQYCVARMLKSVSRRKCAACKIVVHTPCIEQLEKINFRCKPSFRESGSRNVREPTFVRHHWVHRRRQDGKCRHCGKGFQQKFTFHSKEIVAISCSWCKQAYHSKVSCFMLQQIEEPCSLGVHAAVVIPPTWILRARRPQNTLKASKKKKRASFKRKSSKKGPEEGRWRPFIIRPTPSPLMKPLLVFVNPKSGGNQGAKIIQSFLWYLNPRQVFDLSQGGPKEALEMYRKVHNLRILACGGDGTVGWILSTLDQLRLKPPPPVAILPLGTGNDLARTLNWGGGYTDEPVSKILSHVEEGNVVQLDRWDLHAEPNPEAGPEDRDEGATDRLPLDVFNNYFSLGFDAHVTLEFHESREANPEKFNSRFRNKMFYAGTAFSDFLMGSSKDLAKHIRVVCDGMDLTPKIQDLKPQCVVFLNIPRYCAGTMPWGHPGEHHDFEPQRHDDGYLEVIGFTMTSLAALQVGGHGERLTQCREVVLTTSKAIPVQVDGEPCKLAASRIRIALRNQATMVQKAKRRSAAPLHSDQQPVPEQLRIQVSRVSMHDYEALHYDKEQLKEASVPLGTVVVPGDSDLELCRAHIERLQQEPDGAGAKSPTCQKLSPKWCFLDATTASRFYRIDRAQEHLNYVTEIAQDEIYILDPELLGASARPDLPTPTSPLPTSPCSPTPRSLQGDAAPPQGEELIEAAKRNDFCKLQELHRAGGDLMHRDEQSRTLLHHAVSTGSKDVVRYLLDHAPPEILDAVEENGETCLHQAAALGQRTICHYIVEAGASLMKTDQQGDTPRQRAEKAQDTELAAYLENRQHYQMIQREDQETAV
row,Structure (SMILES),IC50
1,"CC(C(N)=O)N(c1ccc(OCc2ccccc2)cc1)c1nc(N)c(C(=O)c2ccc(OC(F)F)cc2)s1 (racemic) [Example 182, rac-2-(N-[4-amino-5-[4-(difluoromethoxy)benzoyl]thiazol-2-yl]-4-benzyloxy-anilino)propanamide]",91 nM
2,"CC(C(N)=O)N(c1ccc(F)cc1)c1nc(N)c(C(=O)c2cccc(OC(F)F)c2)s1 (racemic) [Example 183, rac-2-(N-[4-amino-5-[3-(difluoromethoxy)benzoyl]thiazol-2-yl]-4-fluoro-anilino)propanamide]",222 nM
3,"CC(C(N)=O)N(c1ccc(F)c(F)c1)c1nc(N)c(C(=O)c2cccnc2)s1 (racemic) [Example 184, rac-2-(N-[4-amino-5-(pyridine-3-carbonyl)thiazol-2-yl]-3,4-difluoro-anilino)propanamide]",428 nM
4,"CC(C(N)=O)N(c1ccc(F)cc1)c1nc(N)c(C(=O)c2ccnc(Cl)c2)s1 (racemic) [Example 186, rac-2-(N-[4-amino-5-(2-chloropyridine-4-carbonyl)thiazol-2-yl]-4-fluoro-anilino)propanamide]",392 nM
5,"CC(C(N)=O)N(c1ccc(F)cc1)c1nc(N)c(C(=O)c2ccnc(C(F)F)c2)s1 (racemic) [Example 188, rac-2-(N-[4-amino-5-[2-(difluoromethyl)pyridine-4-carbonyl]thiazol-2-yl]-4-fluoro-anilino)propanamide]",1240 nM
6,"CC(C(N)=O)N(c1ccncc1)c1nc(N)c(C(=O)c2ccccc2)s1 (racemic) [Example 189, rac-2-[(4-amino-5-benzoyl-thiazol-2-yl)-(4-pyridyl)amino]propanamide]",6350 nM
7,"COc1cc(C(=O)c2sc(N(c3ccc(F)cc3)C(C)C(N)=O)nc2N)ccn1 (racemic) [Example 190, rac-2-(N-[4-amino-5-(2-methoxypyridine-4-carbonyl)thiazol-2-yl]-4-fluoro-anilino)propanamide]",553 nM
8,"COc1ccc(N(c2nc(N)c(C(=O)c3ccccc3)s2)C(C)C(N)=O)cc1F (racemic) [Example 191, rac-2-(N-(4-amino-5-benzoyl-thiazol-2-yl)-3-fluoro-4-methoxy-anilino)propanamide]",356 nM

# Other lines, results leading:
row,IC50,Structure (SMILES)
1,48 nM,"CC(C(N)=O)N(c1ccc(F)cc1)c1nc(N)c(C(=O)c2ccc(N3CCOCC3)cc2)s1 (racemic) [Example 178, rac-2-(N-[4-amino-5-(4-morpholinobenzoyl)thiazol-2-yl]-4-fluoro-anilino)propanamide]"
2,57 nM,"CC(C(N)=O)N(c1ccc(F)cc1)c1nc(N)c(C(=O)c2ccc(Cn3cccn3)cc2)s1 (racemic) [Example 179, rac-2-(N-[4-amino-5-[4-(pyrazol-1-ylmethyl)benzoyl]thiazol-2-yl]-4-fluoro-anilino)propanamide]"
3,62 nM,"CC(C(N)=O)N(c1ccc(F)cc1)c1nc(N)c(C(=O)c2ccc(N(C)C)cc2)s1 (racemic) [Example 180, rac-2-(N-[4-amino-5-[4-(dimethylamino)benzoyl]thiazol-2-yl]-4-fluoro-anilino)propanamide]"
4,65 nM,"CC(C(N)=O)N(c1ccc(F)cc1)c1nc(N)c(C(=O)c2ccc(N3CCCC3)cc2)s1 (racemic) [Example 181, rac-2-(N-[4-amino-5-(4-pyrrolidin-1-ylbenzoyl)thiazol-2-yl]-4-fluoro-anilino)propanamide]"
5,301 nM,"CC(=O)Nc1ccc(C(=O)c2sc(N(c3ccc(F)cc3)C(C)C(N)=O)nc2N)cc1 (racemic) [Example 185, rac-2-(N-[5-(4-acetamidobenzoyl)-4-amino-thiazol-2-yl]-4-fluoro-anilino)propanamide]"
6,1400 nM,"Cc1cc(C(=O)c2sc(N(c3ccc(F)cc3)C(C)C(N)=O)nc2N)ccn1 (racemic) [Example 187, rac-2-(N-[4-amino-5-(2-methylpyridine-4-carbonyl)thiazol-2-yl]-4-fluoro-anilino)propanamide]"
